Results from PubChem BioAssay AID330 (DTP/NCI, 2004).
Where “and” joins values, the source holds several entries; their conditions need not be identical. Equal values may be shown once. Inconclusive results and toxic doses are left out. How the source made its calls: active means survival T/C of 150% or more; inactive means T/C below 125% in these data.

System: P388 leukemia ip, CD2F1 mice, survival T/C
Experiment: NCI In Vivo Anticancer Drug Screen. Data for tumor model P388 Leukemia (intraperitoneal) in CD2F1 (CDF1) mice
Details: endpoint: median survival time, higher = longer survival
Method in brief: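 Mice carrying the transplanted tumor received test compound or vehicle. Survival was recorded in each group, and the value is the treated-group measurement divided by that of the vehicle-treated control group.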

Measured: T/C

COc1cc2cc(c1Cl)N(C)C(=O)C[C@H](OC(=O)[C@H](C)N(C)C(C)=O)[C@]1(C)O[C@H]1[C@H](C)[C@@H]1C[C@@](O)(NC(=O)O1)[C@H](OC)C=C/C=C(\C)C2
active: dose: 0.05 mg/kg/injection, schedule: Q01DX005 (ip), vehicle: saline 158 % of control | dose: 0.05 mg/kg/injection, schedule: Q04DX002 (ip), vehicle: saline + alcohol 169 % of control | dose: 0.08 mg/kg/injection, schedule: Q04DX002 (ip), vehicle: saline + alcohol 171 % of control | dose: 0.1 mg/kg/injection, schedule: Q01DX005 (ip), vehicle: saline 172 % of control | dose: 3.1 micrograms/kg/injection, schedule: Q01DX009 (ip), vehicle: saline + alcohol 158 % of control | dose: 4.0 micrograms/kg/injection, schedule: Q01DX009 (ip), vehicle: other 154 % of control | dose: 4.0 micrograms/kg/injection, schedule: Q01DX009 (ip), vehicle: water 157 % of control | dose: 4.0 micrograms/kg/injection, schedule: Q03HX016 (ip), vehicle: other 159 % of control | dose: 6.3 micrograms/kg/injection, schedule: Q01DX009 (ip), vehicle: saline + alcohol 160 % of control | dose: 6.3 micrograms/kg/injection, schedule: Q01DX009 (ip), vehicle: saline 159 % of control | dose: 8.0 micrograms/kg/injection, schedule: Q01DX005 (ip), vehicle: saline + alcohol 157 % of control | dose: 8.0 micrograms/kg/injection, schedule: Q01DX009 (ip), vehicle: other 154 % of control | dose: 8.0 micrograms/kg/injection, schedule: Q01DX009 (ip), vehicle: water 150 % of control | dose: 8.0 micrograms/kg/injection, schedule: Q03HX008 (ip), vehicle: other 163 % of control | dose: 8.0 micrograms/kg/injection, schedule: Q03HX016 (ip), vehicle: other 163 % of control | dose: 8.0 micrograms/kg/injection, schedule: Q03HX016 (ip), vehicle: saline + alcohol 163 % of control | dose: 8.0 micrograms/kg/injection, schedule: Q04DX003 (ip), vehicle: other 150 % of control | dose: 12.5 micrograms/kg/injection, schedule: Q01DX009 (ip), vehicle: saline + alcohol 159 % of control and 172 % of control | dose: 16.0 micrograms/kg/injection, schedule: Q01DX005 (ip), vehicle: saline + alcohol 155 % of control and 157 % of control and 160 % of control | dose: 16.0 micrograms/kg/injection, schedule: Q01DX009 (ip), vehicle: water 159 % of control | dose: 16.0 micrograms/kg/injection, schedule: Q03HX008 (ip), vehicle: saline + alcohol 163 % of control | dose: 16.0 micrograms/kg/injection, schedule: Q04DX003 (ip), vehicle: other 154 % of control | dose: 16.0 micrograms/kg/injection, schedule: Q04DX003 (ip), vehicle: water 151 % of control | dose: 25.0 micrograms/kg/injection, schedule: Q01DX009 (ip), vehicle: saline + alcohol 163 % of control | dose: 32.0 micrograms/kg/injection, schedule: Q01DX005 (ip), vehicle: saline + alcohol 163 % of control and 172 % of control | dose: 32.0 micrograms/kg/injection, schedule: Q03HX016 (ip), vehicle: saline + alcohol 163 % of control | dose: 32.0 micrograms/kg/injection, schedule: Q04DX003 (ip), vehicle: other 172 % of control | dose: 50.0 micrograms/kg/injection, schedule: Q01DX005 (ip), vehicle: saline 173 % of control | dose: 50.0 micrograms/kg/injection, schedule: Q01DX009 (ip), vehicle: saline + alcohol 159 % of control | dose: 64.0 micrograms/kg/injection, schedule: Q01DX005 (ip), vehicle: saline + alcohol 173 % of control and 175 % of control | dose: 64.0 micrograms/kg/injection, schedule: Q03HX008 (ip), vehicle: saline + alcohol 159 % of control | dose: 64.0 micrograms/kg/injection, schedule: Q04DX003 (ip), vehicle: water 161 % of control | dose: 64.0 micrograms/kg/injection, schedule: Q08DX002 (ip), vehicle: other 150 % of control | dose: 86.4 micrograms/kg/injection, schedule: Q04DX002 (ip), vehicle: saline + alcohol 160 % of control | dose: 128.0 micrograms/kg/injection, schedule: Q01DX001 (ip), vehicle: other 154 % of control | dose: 128.0 micrograms/kg/injection, schedule: Q01DX009 (sc), vehicle: saline + alcohol 154 % of control | dose: 128.0 micrograms/kg/injection, schedule: Q04DX003 (ip), vehicle: saline + alcohol 163 % of control | dose: 128.0 micrograms/kg/injection, schedule: Q04DX003 (ip), vehicle: water 150 % of control | dose: 128.0 micrograms/kg/injection, schedule: Q08DX002 (ip), vehicle: other 163 % of control | dose: 128.0 micrograms/kg/injection, schedule: Q08DX002 (ip), vehicle: saline + alcohol 163 % of control | dose: 128.0 micrograms/kg/injection, schedule: Q08DX002 (ip), vehicle: saline 154 % of control | dose: 144.0 micrograms/kg/injection, schedule: Q04DX002 (ip), vehicle: saline + alcohol 169 % of control | dose: 256.0 micrograms/kg/injection, schedule: Q01DX001 (ip), vehicle: other 150 % of control | dose: 256.0 micrograms/kg/injection, schedule: Q01DX001 (ip), vehicle: saline + alcohol 150 % of control | dose: 256.0 micrograms/kg/injection, schedule: Q01DX009 (sc), vehicle: saline + alcohol 172 % of control | dose: 256.0 micrograms/kg/injection, schedule: Q08DX002 (ip), vehicle: saline 172 % of control | dose: 512.0 micrograms/kg/injection, schedule: Q01DX001 (ip), vehicle: saline + alcohol 154 % of control
inactive: dose: 0.01 mg/kg/injection, schedule: Q01DX005 (iv), vehicle: saline 117 % of control | dose: 0.03 mg/kg/injection, schedule: Q01DX005 (iv), vehicle: saline 107 % of control | dose: 0.05 mg/kg/injection, schedule: Q01DX005 (iv), vehicle: saline 104 % of control | dose: 0.1 mg/kg/injection, schedule: Q01DX005 (iv), vehicle: saline 107 % of control | dose: 0.16 mg/kg/injection, schedule: Q04DX003 (ip), vehicle: saline 123 % of control | dose: 0.1 micrograms/kg/injection, schedule: Q01DX009 (ip), vehicle: saline 100 % of control | dose: 0.3 micrograms/kg/injection, schedule: Q03HX016 (ip), vehicle: other 122 % of control | dose: 0.4 micrograms/kg/injection, schedule: Q01DX009 (ip), vehicle: saline 112 % of control | dose: 0.5 micrograms/kg/injection, schedule: Q01DX009 (oral), vehicle: other 100 % of control | dose: 0.5 micrograms/kg/injection, schedule: Q01DX009 (sc), vehicle: other 100 % of control | dose: 0.5 micrograms/kg/injection, schedule: Q03HX008 (ip), vehicle: other 122 % of control | dose: 0.8 micrograms/kg/injection, schedule: Q01DX009 (ip), vehicle: saline 120 % of control | dose: 1.0 micrograms/kg/injection, schedule: Q01DX001 (ip), vehicle: other 109 % of control | dose: 1.0 micrograms/kg/injection, schedule: Q01DX009 (ip), vehicle: saline + alcohol 111 % of control | dose: 1.0 micrograms/kg/injection, schedule: Q01DX009 (oral), vehicle: other 100 % of control | dose: 1.0 micrograms/kg/injection, schedule: Q01DX009 (sc), vehicle: other 100 % of control | dose: 1.0 micrograms/kg/injection, schedule: Q08DX002 (ip), vehicle: other 109 % of control | dose: 2.0 micrograms/kg/injection, schedule: Q01DX001 (oral), vehicle: other 100 % of control | dose: 2.0 micrograms/kg/injection, schedule: Q01DX001 (sc), vehicle: other 100 % of control | dose: 2.0 micrograms/kg/injection, schedule: Q01DX009 (ip), vehicle: water 117 % of control | dose: 2.0 micrograms/kg/injection, schedule: Q01DX009 (sc), vehicle: other 100 % of control | dose: 4.0 micrograms/kg/injection, schedule: Q01DX001 (oral), vehicle: other 100 % of control | dose: 4.0 micrograms/kg/injection, schedule: Q01DX009 (oral), vehicle: other 104 % of control | dose: 4.0 micrograms/kg/injection, schedule: Q01DX009 (sc), vehicle: other 100 % of control | dose: 8.0 micrograms/kg/injection, schedule: Q01DX001 (oral), vehicle: other 104 % of control | dose: 8.0 micrograms/kg/injection, schedule: Q01DX001 (sc), vehicle: other 100 % of control | dose: 8.0 micrograms/kg/injection, schedule: Q01DX009 (oral), vehicle: other 100 % of control | dose: 8.0 micrograms/kg/injection, schedule: Q01DX009 (sc), vehicle: other 100 % of control | dose: 16.0 micrograms/kg/injection, schedule: Q01DX001 (oral), vehicle: other 100 % of control | dose: 16.0 micrograms/kg/injection, schedule: Q01DX001 (sc), vehicle: other 100 % of control | dose: 16.0 micrograms/kg/injection, schedule: Q01DX009 (oral), vehicle: other 100 % of control | dose: 16.0 micrograms/kg/injection, schedule: Q01DX009 (sc), vehicle: other 100 % of control | dose: 32.0 micrograms/kg/injection, schedule: Q01DX001 (oral), vehicle: other 100 % of control | dose: 32.0 micrograms/kg/injection, schedule: Q01DX001 (sc), vehicle: other 100 % of control | dose: 32.0 micrograms/kg/injection, schedule: Q01DX009 (oral), vehicle: other 109 % of control | dose: 32.0 micrograms/kg/injection, schedule: Q01DX009 (sc), vehicle: other 104 % of control | dose: 32.0 micrograms/kg/injection, schedule: Q03HX024 (ip), vehicle: saline + alcohol 122 % of control | dose: 64.0 micrograms/kg/injection, schedule: Q01DX001 (oral), vehicle: other 100 % of control | dose: 64.0 micrograms/kg/injection, schedule: Q01DX001 (sc), vehicle: other 100 % of control | dose: 64.0 micrograms/kg/injection, schedule: Q01DX009 (oral), vehicle: other 104 % of control | dose: 64.0 micrograms/kg/injection, schedule: Q01DX009 (sc), vehicle: other 109 % of control | dose: 128.0 micrograms/kg/injection, schedule: Q01DX001 (oral), vehicle: other 104 % of control | dose: 128.0 micrograms/kg/injection, schedule: Q01DX001 (sc), vehicle: other 109 % of control | dose: 128.0 micrograms/kg/injection, schedule: Q01DX009 (oral), vehicle: other 100 % of control | dose: 256.0 micrograms/kg/injection, schedule: Q01DX001 (oral), vehicle: other 104 % of control | dose: 512.0 micrograms/kg/injection, schedule: Q01DX001 (oral), vehicle: other 100 % of control | dose: 1024.0 micrograms/kg/injection, schedule: Q08DX002 (ip), vehicle: saline 109 % of control
